Results on six compounds are retold here after US11510899B2, “RTX toxin production inhibitor and composition for treating symptom of vibrio infection by using same” (priority 2018, dated 2022).

Broadly, the EC50 is the midpoint of the concentration-response curve.

In one assay the target is T1, HlyU (Vibrio vulnificus, UniProt A0A3Q0L222).
T1 sequence (A0A3Q0L222 1-98): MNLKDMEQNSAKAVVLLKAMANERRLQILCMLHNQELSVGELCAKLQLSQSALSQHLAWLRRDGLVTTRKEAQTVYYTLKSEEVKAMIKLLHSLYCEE
Nature of the assay: Vibrio reporter strain, pKK1305 (PrtxA-lux, activated by HlyU) in wild-type V. vulnificus. It counts as cell-based. Particulars: Compound Group I; HlyU activity (RLU, DMSO = 100%), 30° C. As for the experimental part:
Meanwhile, verification experiments using the Vibrio reporter strain were also conducted so as to exclude false positive results. It was identified that the effect of the compound was not limited only to E. coli using Vibrio vulnificus, each having the reporter plasmid (pZW1608) inhibited by HlyU, which was used for the E. coli reporter strain, and the plasmid (pKK1305) in which the promoter of the rtxA gene activated by HlyU is cloned in front of the bioluminescence operon.
The constructed wild-type Vibrio reporter strain was treated with sample compounds and cultured at 30° C., and cell growth and luminescence were measured in the same manner as the E. coli strain screening (FIG. 3 and FIG. 4).
In order to identify whether or not a specific structure of CM2660 has a significant effect on HlyU inhibition, the effect of HlyU inhibition by the compound CM2660 and derivatives thereof, “Compound Group I” (FIG. 5) was verified. For the purpose, the pKK1305 plasmid prepared in Example 1 was conjugated to the wild-type Vibrio vulnificus, and the Vibrio reporter strain (pKK1305 in wild-type V. vulnificus) thus produced was treated with various concentrations of the derivative compounds.
While culturing at 30° C., the growth of the reporter strain and the degree of bioluminescence thereof were measured in the same manner as in Example 1, and the RLU was calculated. The RLU of the DMSO-treated control group was expressed as 100% HlyU activity. HlyU activity was plotted according to the concentration of the derivative compound, and EC50 (half maximal effective concentration) was calculated using GraphPad Prism 7.0 (GraphPad Software, San Diego, Calif.) (FIG. 6, Table 2).
For the compound `O=C(Nc1scc2c1c(=O)oc1ccccc12)c1ccccc1` [LJ4451], the midpoint of the response, the EC50, lay at 993 µM.

For `O=C(CCc1ccccc1)Nc1scc2c1c(=O)oc1ccccc12` [LJ4458], the response was half-maximal at 875 µM (EC50).

Staying with this assay, now noted: Compound Group II; HlyU activity (RLU, DMSO = 100%), 30° C.; read-out: EC50.
Regarding `O=C(O)C#Cc1ccc([N+](=O)[O-])cc1` [LJ4526], the EC50 came to 140 µM.

In the case of `CC(C)(C)OC(=O)CNC(=O)C#Cc1ccc(N)cc1` [LJ4531], the concentration for a half-maximal effect (EC50) amounted to 118 µM.

Consider `CC(C)(C)OC(=O)CNC(=O)C#Cc1cccnc1` [LJ4532], for which the EC50 stood at 52.4 µM.

Take `O=C(O)CNC(=O)C#Cc1ccccc1` [LJ4533]: the EC50 worked out at 1140 µM.
